Laboratory results published in US10597367B2, “Metabotropic glutamate receptor negative allosteric modulators (NAMs) and uses thereof” (Sanford Burnham Prebys Medical Discovery Institute, priority 2014, dated 2020).

Assays:
mGlu2 receptor = mGlu2 receptor (Rattus norvegicus (Rat), UniProt P31421); assay: mGlu2 in vitro GIRK thallium flux assay; format: cell-based; conditions: read-out: mGlu2 EC50 (μM) (60 min); NAM; test compound incubated 60 min before EC80 glutamate; HEK-293 GIRK cells
Procedure: All cell culture reagents were purchased from Invitrogen Corp. (Carlsbad, Calif.) unless otherwise noted. Compound activity at the group II (mGlu2 and mGlu3) mGlus was assessed using thallium flux through GIRK channels. Briefly, cells were plated into 384-well, black-walled, clear-bottomed poly-D-lysine-coated plates at a density of 15,000 cells/20 μL/well in DMEM containing 10% dialyzed FBS, 20 mM HEPES, and 100 units/mL penicillin/streptomycin (assay media). Plated cells were incubated overnight at 37° C. in the presence of 5% CO2. […] Cells were incubated for 1 h at room temperature, and the dye exchanged to assay buffer using an ELX405, leaving 20 μL/well. Test compounds were diluted to 2 times their final desired concentration in assay buffer (0.3% DMSO final concentration). […] Cell plates and compound plates were loaded onto a kinetic imaging plate reader (FDSS 6000 or 7000; Hamamatsu Corporation, Bridgewater, N.J.). Appropriate baseline readings were taken (10 images at 1 Hz; excitation, 470±20 nm; emission, 540±30 nm) and test compounds were added in a 20 μL volume and incubated for either 2.5 min or 60 min as indicated before the addition of 10 μL of thallium buffer with or without agonist. After the addition of agonist, data were collected for approximately an additional 2.5 min. Data were analyzed using Excel (Microsoft Corp, Redmond, Wash.). The slope of the fluorescence increase beginning 5 s after thallium/agonist addition and ending 15 s after thallium/agonist addition was calculated, corrected to vehicle and maximal agonist control slope values, and plotted in using either XLfit (ID Business Solutions Ltd) or Prism software (GraphPad Software, San Diego, Calif.) to generate concentration-response curves. Potencies were calculated from fits using a four-point parameter logistic equation. For concentration-response curve experiments, compounds were serially diluted 1:3 into 10 point concentration response curves and were transferred to daughter plates using an Echo acoustic plate reformatter (Labcyte, Sunnyvale, Calif.). Test compounds were applied and followed by EC80 concentrations of glutamate.

[1] = Plasma stability in vitro assay; format: in vitro ADME; conditions: heparinized rat plasma, 100 μM, 37.5° C.
Procedure: A 20 μL aliquot of a 10 mM solution in DMSO of the test compound was added to 2.0 mL of heparinized rat plasma (Lampire, P1-150N) to obtain a 100 μM final solution. The mixture was incubated for 1 h at 37.5° C. Aliquots of 100 μL were taken at 15 min intervals and diluted with 100 μL of MeOH/ACN. After mixing, the sample was centrifuged at approximately 13000 rpm for 12 min. The supernatant was filtered and transferred into an autosampler vial and the amount of test compound was quantified using the Shimadzu LCMS-2010EV system. The change of the AUC of the parent compound in function of time was used as a measure of plasma stability.

[2] = Microsomal stability in vitro assay; format: in vitro ADME; conditions: pooled rat liver microsomes, 4 μM compound, NADPH
Procedure: Pooled rat liver microsomes (BD Biosciences, #452701) were preincubated with test compounds at 37.5° C. for 5 min in the absence of NADPH. The reaction was initiated by addition of NADPH and incubated under the same conditions. The final incubation concentrations were 4 μM test compound, 2 mM NADPH, and 1 mg/mL (total protein) liver microsomes in phosphate-buffered saline (PBS) at pH 7.4. One aliquot (100 μL) of the incubation mixture was withdrawn at 15 min time points and combined immediately with 100 μL of ACN/MeOH. After mixing, the sample was centrifuged at approximately 13000 rpm for 12 min. The supernatant was filtered and transferred into an autosampler vial and the amount of test compound was quantified using a Shimadzu LCMS 2010EV mass spectrometer. The change of the AUC (area under the curve) of the parent compound as a function of time was used as a measure of microsomal stability. Test compounds were run in duplicate with a positive control.

Male Wistar rats = assay: Forced Swim Test (FST); format: in vivo; conditions: rat, FIG. 1
Procedure: Male Wistar rats (Charles River, Hollister, Calif.), weighing 175-225 g (Charles River, Portage, Ind.) used for the forced swim test study were housed in pairs with food and water available ad libitum, except during testing, in a temperature and humidity controlled vivarium (21° C.). Rats were maintained on a 12-hour reverse light-dark cycle with lights on at 6 pm. All experimental procedures occurred during the dark cycle, were approved by the Institutional Animal Care and Use Committee of the Scripps Research Institute, and were in accordance with the Association for the Assessment and Accreditation of Laboratory Animal Care (AAALAC) guidelines. […]
After the habituation swim and 24 hours prior to the test swim, rats were administered one of three doses of a mGlu2/3 NAM, with doses and pretreatment time based on maximal brain penetration as determined by PK studies for each compound. Blood and brain tissue were collected immediately after the FST and the PK properties of each compound were analyzed together with FST behavior. […] Twenty-four hours after their first exposure, the animals were again placed in the swim apparatus for 5 min, and behaviors were monitored from above by video camera for subsequent analysis. The rater of the behavioral patterns was blind with respect to the experimental conditions being scored. […]

mGlu2 receptor, sequence (P31421 19-872): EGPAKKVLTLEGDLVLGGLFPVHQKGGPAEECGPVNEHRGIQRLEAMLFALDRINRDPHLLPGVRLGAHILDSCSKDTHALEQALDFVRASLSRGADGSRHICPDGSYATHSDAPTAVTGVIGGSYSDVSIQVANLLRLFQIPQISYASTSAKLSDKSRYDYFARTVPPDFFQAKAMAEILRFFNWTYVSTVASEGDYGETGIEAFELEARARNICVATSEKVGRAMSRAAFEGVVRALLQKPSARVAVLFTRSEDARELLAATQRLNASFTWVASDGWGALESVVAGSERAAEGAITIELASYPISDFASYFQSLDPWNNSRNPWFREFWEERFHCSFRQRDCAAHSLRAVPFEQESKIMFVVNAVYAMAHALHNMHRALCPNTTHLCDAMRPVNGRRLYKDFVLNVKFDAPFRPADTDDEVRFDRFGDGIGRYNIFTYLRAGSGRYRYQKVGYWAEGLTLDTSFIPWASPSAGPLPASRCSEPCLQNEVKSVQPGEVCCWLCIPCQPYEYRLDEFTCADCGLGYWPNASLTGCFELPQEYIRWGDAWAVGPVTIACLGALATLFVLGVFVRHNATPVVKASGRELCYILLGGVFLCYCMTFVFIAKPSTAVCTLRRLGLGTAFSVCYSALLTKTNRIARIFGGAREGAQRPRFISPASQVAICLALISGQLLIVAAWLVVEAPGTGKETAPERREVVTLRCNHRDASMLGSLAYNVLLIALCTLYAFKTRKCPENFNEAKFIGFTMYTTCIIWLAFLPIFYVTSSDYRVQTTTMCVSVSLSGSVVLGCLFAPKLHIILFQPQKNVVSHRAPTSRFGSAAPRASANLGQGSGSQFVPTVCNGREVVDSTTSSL

SMILES	EC50 (mGlu2 receptor) [µM]	Plasma Stability, Percent Remaining @ 1 hour [1] [%]	Microsomal Stability, Percent Remaining @ 1 hour [2] [%]	antidepressant activity in the Forced Swim Test (immobility, swimming) (Male Wistar rats)
Cc1cc2c(cc1C(F)(F)F)NC(=O)CC(c1cccc(Oc3cccc(C(F)(F)F)c3)c1)N2 (single isomer, unassigned) [Example 172B, 7-Methyl-8-(trifluoromethyl)-4-(3-(3-(trifluoromethyl)phenoxy)phenyl)-4,5-dihydro-1H-benzo[b][1,4]diazepin-2(3H)-one]	> 10	–	–	–
Cc1cc2c(cc1C(F)(F)F)NC(=O)CC(c1cccc(Oc3cccc(Br)c3)c1)N2 (single isomer, unassigned) [Example 173B, 4-(3-(3-Bromophenoxy)phenyl)-7-methyl-8-(trifluoromethyl)-4,5-dihydro-1H-benzo[b][1,4]diazepin-2(3H)-one]	> 10	–	–	–
O=C(O)c1cc(-c2cccc(-c3csc(-c4ccccc4)n3)c2)ccc1F [Example 1, 4-Fluoro-3′-(2-phenylthiazol-4-yl)biphenyl-3-carboxylic Acid]	–	93	3	–
O=C(O)c1cc(F)cc(-c2cccc(-c3csc(-c4ccccc4)n3)c2)c1 [Example 9, 5-Fluoro-3′-(2-phenylthiazol-4-yl)biphenyl-3-carboxylic Acid]	–	98	4	–
O=C(O)c1cc(-c2cccc(-c3nsc(-c4ccccc4)n3)c2)ccc1F [Example 38, 4-Fluoro-3′-(5-phenyl-1,2,4-thiadiazol-3-yl)biphenyl-3-carboxylic Acid]	–	65	2	–
O=C(O)c1cc(F)cc(-c2cccc(-c3nsc(-c4ccoc4)n3)c2)c1 [Example 43, 5-Fluoro-3′-(5-(furan-3-yl)-1,2,4-thiadiazol-3-yl)biphenyl-3-carboxylic Acid]	–	95	66	–
O=C(O)c1cc(F)cc(-c2cccc(-c3nc(-c4ccc(C(F)(F)F)nc4)cc(C(F)(F)F)n3)c2)c1 [Example 76, 5-Fluoro-3′-(4-(trifluoromethyl)-6-(6-(trifluoromethyl)pyridin-3-yl)pyrimidin-2-yl)biphenyl-3-carboxylic Acid]	–	100	95	–
O=C(O)c1ccc(F)c(-c2cccc(-c3nc(-c4ccc(C(F)(F)F)nc4)cc(C(F)(F)F)n3)c2)c1 [Example 79, 6-Fluoro-3′-(4-(trifluoromethyl)-6-(6-(trifluoromethyl)pyridin-3-yl)pyrimidin-2-yl)biphenyl-3-carboxylic Acid]	–	86	82	–
O=C(O)c1cc(-c2cccc(-c3nc(-c4ccccc4)cc(C(F)(F)F)n3)c2)ccc1F [Example 86, 4-Fluoro-3′-(4-phenyl-6-(trifluoromethyl)pyrimidin-2-yl)biphenyl-3-carboxylic Acid]	–	100	100	–
COc1ccc(-c2cc(C(F)(F)F)nc(-c3cccc(-c4ccc(F)c(C(=O)O)c4)c3)n2)cc1 [Example 87, 4-Fluoro-3′-(4-(4-methoxyphenyl)-6-(trifluoromethyl)pyrimidin-2-yl)biphenyl-3-carboxylic Acid]	–	97	92	–
O=C(O)c1cc(F)cc(-c2cccc(-c3nc(-c4ccco4)cc(C(F)(F)F)n3)c2)c1 [Example 89, 5-Fluoro-3′-(4-(furan-2-yl)-6-(trifluoromethyl)pyrimidin-2-yl)biphenyl-3-carboxylic Acid]	–	100	82	–
O=C(O)c1ccc(F)c(-c2cccc(-c3nc(-c4ccoc4)cc(C(F)(F)F)n3)c2)c1 [Example 114, 6-Fluoro-3′-(4-(furan-3-yl)-6-(trifluoromethyl)pyrimidin-2-yl)biphenyl-3-carboxylic Acid]	–	93	66	–
O=C(O)c1cc(-c2cccc(-c3nc(-c4ccsc4)cc(C(F)(F)F)n3)c2)ccc1F [Example 122, 4-Fluoro-3′-(4-(thiophen-3-yl)-6-(trifluoromethyl)pyrimidin-2-yl)-[1,1′-biphenyl]-3-carboxylic Acid]	–	83	83	–
Cc1cc2c(cc1C(F)(F)F)NC(=O)CC(c1cccc(Sc3ncccn3)c1)=N2 [Example 136, 7-Methyl-4-(3-(pyrimidin-2-ylthio)phenyl)-8-(trifluoromethyl)-1H-benzo[b][1,4]diazepin-2(3H)-one]	–	99	90	–
Cc1cc2c(cc1C(F)(F)F)NC(=O)CC(c1cccc(S(=O)(=O)c3ncccn3)c1)=N2 [Example 137, 7-Methyl-4-(3-(pyrimidin-2-ylsulfonyl)phenyl)-8-(trifluoromethyl)-1H-benzo[b][1,4]diazepin-2(3H)-one]	–	66	68	–
O=C1CC(c2cccc(-c3cccnc3)c2)=Nc2ccc(Br)cc2N1 [Example 179, 8-Bromo-4-(3-(pyridin-3-yl)phenyl)-1,3-dihydro-2H-benzo[b][1,4]diazepin-2-one]	–	100	30	–
N#Cc1cc(C2=Nc3ccc(Br)cc3NC(=O)C2)ccn1 [Example 182, 4-(8-Bromo-2-oxo-2,3-dihydro-1H-benzo[b][1,4]diazepin-4-yl)picolinonitrile]	–	–	–	antidepressant activity by decreasing immobility and increasing swimming
N#Cc1cc(C2=Nc3ccc(C(F)(F)F)cc3NC(=O)C2)ccn1 [Example 184, 4-(2-Oxo-8-(trifluoromethyl)-2,3-dihydro-1H-benzo[b][1,4]diazepin-4-yl)picolinonitrile]	–	100	97	–
